Assay results as given in PubChem BioAssay AID248 (DTP/NCI, 2004).
Inconclusive results and toxic doses are left out. No stated cut-off is given here; in the data, active means T/C of 150% or more; inactive means T/C below 125%.

System: L1210 leukemia ip in BDF1 mice, survival T/C
Test: NCI In Vivo Anticancer Drug Screen. Data for tumor model L1210 Leukemia (intraperitoneal) in B6D2F1 (BDF1) mice
Conditions: endpoint: mean survival time, higher = longer survival
How it was run: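 Survival endpoint. Drug-treated group vs vehicle group, expressed as T divided by C. Tumor passaged by transplantation.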

[1] = dose: 100.0 mg/kg/injection, schedule: Q04DX003 (ip), vehicle: saline with Tween-80
[2] = dose: 200.0 mg/kg/injection, schedule: Q04DX003 (ip), vehicle: saline with Tween-80
[3] = dose: 400.0 mg/kg/injection, schedule: Q04DX003 (ip), vehicle: saline with Tween-80
[4] = dose: 12.5 mg/kg/injection, schedule: Q01DX009 (ip), vehicle: saline
[5] = dose: 25.0 mg/kg/injection, schedule: Q01DX009 (ip), vehicle: saline
[6] = dose: 25.0 mg/kg/injection, schedule: Q04DX003 (ip), vehicle: saline
[7] = dose: 50.0 mg/kg/injection, schedule: Q01DX009 (ip), vehicle: saline
[8] = dose: 50.0 mg/kg/injection, schedule: Q04DX003 (ip), vehicle: saline
[9] = dose: 100.0 mg/kg/injection, schedule: Q01DX009 (ip), vehicle: saline
[10] = dose: 100.0 mg/kg/injection, schedule: Q04DX003 (ip), vehicle: saline
[11] = dose: 100.0 mg/kg/injection, schedule: Q01DX009 (ip), vehicle: carboxymethylcellulose (CMC)
[12] = dose: 200.0 mg/kg/injection, schedule: Q01DX009 (ip), vehicle: carboxymethylcellulose (CMC)
[13] = dose: 25.0 mg/kg/injection, schedule: Q04DX003 (ip), vehicle: Klucel (hydroxypropylcellulose) (HPC)
[14] = dose: 50.0 mg/kg/injection, schedule: Q04DX003 (ip), vehicle: Klucel (hydroxypropylcellulose) (HPC)
[15] = dose: 100.0 mg/kg/injection, schedule: Q04DX003 (ip), vehicle: Klucel (hydroxypropylcellulose) (HPC)
[16] = dose: 75.0 mg/kg/injection, schedule: Q01DX001 (ip), vehicle: saline
[17] = dose: 150.0 mg/kg/injection, schedule: Q01DX001 (ip), vehicle: saline
[18] = dose: 50.0 mg/kg/injection, schedule: Q01DX001 (ip), vehicle: saline
[19] = dose: 100.0 mg/kg/injection, schedule: Q01DX001 (ip), vehicle: saline
[20] = dose: 100.0 mg/kg/injection, schedule: Q01DX009 (ip), vehicle: saline with Tween-80
[21] = dose: 200.0 mg/kg/injection, schedule: Q01DX009 (ip), vehicle: saline with Tween-80
[22] = dose: 200.0 mg/kg/injection, schedule: Q01DX001 (ip), vehicle: saline
[23] = dose: 400.0 mg/kg/injection, schedule: Q01DX001 (ip), vehicle: saline
[24] = dose: 50.0 mg/kg/injection, schedule: Q01DX009 (ip), vehicle: saline with Tween-80

Measured: T/C

COc1ccc(-c2oc3cc4c(cc3c2-c2ccc(OC)cc2)CCCC4)cc1
inactive: [1] 98 % of control | [2] 98 % of control | [3] 102 % of control

CCNC(Cc1ccccc1)C1CCCO1 (stereo unspecified)
inactive: dose: 6.25 mg/kg/injection, schedule: Q01DX009 (ip), vehicle: saline 108 % of control | [4] 94 % of control | [5] 96 % of control | [6] 98 % of control | [7] 113 % of control | [8] 101 % of control | [9] 92 % of control | [10] 104 % of control

CC/C(C)=C\CC/C(C)=C/COc1cccc([N+](=O)[O-])c1
inactive: dose: 50.0 mg/kg/injection, schedule: Q01DX009 (ip), vehicle: carboxymethylcellulose (CMC) 97 % of control | [11] 92 % of control | [12] 101 % of control

CCNCc1cc(Nc2cc(C)nc(/N=C(\N)Nc3ccc(Cl)c(Cl)c3)n2)ccc1OC
inactive: dose: 3.12 mg/kg/injection, schedule: Q01DX009 (ip), vehicle: Klucel (hydroxypropylcellulose) (HPC) 94 % of control | dose: 6.25 mg/kg/injection, schedule: Q01DX009 (ip), vehicle: Klucel (hydroxypropylcellulose) (HPC) 103 % of control | dose: 12.5 mg/kg/injection, schedule: Q01DX009 (ip), vehicle: Klucel (hydroxypropylcellulose) (HPC) 97 % of control | [13] 101 % of control | [14] 111 % of control | dose: 75.0 mg/kg/injection, schedule: Q01DX001 (ip), vehicle: other 97 % of control | [15] 95 % of control

C#CC(N)=O
inactive: dose: 3.0 mg/kg/injection, schedule: Q01DX009 (ip), vehicle: saline 100 % of control | dose: 6.0 mg/kg/injection, schedule: Q01DX009 (ip), vehicle: saline 96 % of control | dose: 12.0 mg/kg/injection, schedule: Q01DX009 (ip), vehicle: saline 94 % of control | [6] 107 % of control | [8] 106 % of control | [16] 107 % of control

Clc1ccc(CNc2ccccn2)s1
inactive: [17] 88 % of control

Cc1ccc(NCC(=O)O)cc1
inactive: dose: 100.0 mg/kg/injection, schedule: Q01DX Z (ip), vehicle: methylcellulose (MC) 101 % of control | dose: 200.0 mg/kg/injection, schedule: Q01DX Z (ip), vehicle: methylcellulose (MC) 101 % of control

Cc1cc(Cl)c(Cl)cc1NC(=O)Nc1cccc(C(F)(F)F)c1
inactive: [11] 93 % of control | [12] 91 % of control | dose: 400.0 mg/kg/injection, schedule: Q01DX009 (ip), vehicle: carboxymethylcellulose (CMC) 102 % of control

OCC[N-]CCCN=Cc1ccccc1O.OCC[N-]CCCN=Cc1ccccc1O.[Co+2]
inactive: [18] 96 % of control | [19] 100 % of control

O=C(O)C1=CC2C3C=CC(C(=O)O)(C3)C2C1 (stereo unspecified)
inactive: [20] 96 % of control | [1] 101 % of control | [21] 96 % of control | [2] 102 % of control | dose: 400.0 mg/kg/injection, schedule: Q01DX009 (ip), vehicle: saline with Tween-80 94 % of control | [3] 98 % of control

CN(C)CCOc1ccccc1Cc1ccccc1
inactive: [4] 96 % of control | [5] 97 % of control | [6] 107 % of control | [7] 90 % of control | [8] 98 % of control | [9] 103 % of control | [10] 107 % of control | dose: 200.0 mg/kg/injection, schedule: Q01DX009 (ip), vehicle: saline 110 % of control | dose: 200.0 mg/kg/injection, schedule: Q04DX003 (ip), vehicle: saline 107 % of control

C=CCc1cc(CNCCCOCC)c(O)c(OC)c1
inactive: dose: 12.5 mg/kg/injection, schedule: Q04DX003 (ip), vehicle: Klucel (hydroxypropylcellulose) (HPC) 97 % of control | [13] 95 % of control | [14] 92 % of control

C1CC2CC1C1OC21 (stereo unspecified)
inactive: [18] 103 % of control | [19] 100 % of control | dose: 100.0 mg/kg/injection, schedule: Q01DX009 (ip), vehicle: other 100 % of control | [22] 105 % of control | dose: 200.0 mg/kg/injection, schedule: Q01DX009 (ip), vehicle: other 101 % of control | [23] 103 % of control | dose: 400.0 mg/kg/injection, schedule: Q01DX009 (ip), vehicle: other 94 % of control

CCCCCCCCCCOc1ccc2ccccc2c1
inactive: [1] 100 % of control | [2] 94 % of control | [3] 91 % of control

CCOC(=O)C(=N\Nc1cc(C)ccc1C)/C(C)=N\NC(N)=S
inactive: [16] 87 % of control | [17] 97 % of control | dose: 300.0 mg/kg/injection, schedule: Q01DX001 (ip), vehicle: saline 97 % of control

Cc1ccc(C(C)C)c2sc(=N)oc12
inactive: [15] 104 % of control | dose: 200.0 mg/kg/injection, schedule: Q04DX003 (ip), vehicle: Klucel (hydroxypropylcellulose) (HPC) 103 % of control | dose: 400.0 mg/kg/injection, schedule: Q04DX003 (ip), vehicle: Klucel (hydroxypropylcellulose) (HPC) 98 % of control

OCCN1CCN(CCCN2c3ccccc3Sc3ccc(Cl)cc32)CC1
inactive: dose: 6.25 mg/kg/injection, schedule: Q01DX001 (ip), vehicle: Klucel (hydroxypropylcellulose) (HPC) 97 % of control | dose: 12.5 mg/kg/injection, schedule: Q01DX001 (ip), vehicle: Klucel (hydroxypropylcellulose) (HPC) 105 % of control | dose: 25.0 mg/kg/injection, schedule: Q01DX001 (ip), vehicle: Klucel (hydroxypropylcellulose) (HPC) 111 % of control | dose: 200.0 mg/kg/injection, schedule: Q04DX002 (ip), vehicle: Klucel (hydroxypropylcellulose) (HPC) 108 % of control

CC(C(=O)O)N(C)C(=O)c1cnc2ccccc2n1 (stereo unspecified)
inactive: dose: 100.0 mg/kg/injection, schedule: Q01DX001 (ip), vehicle: carboxymethylcellulose (CMC) 94 % of control | dose: 100.0 mg/kg/injection, schedule: Q04DX003 (ip), vehicle: carboxymethylcellulose (CMC) 95 % of control | dose: 200.0 mg/kg/injection, schedule: Q01DX001 (ip), vehicle: carboxymethylcellulose (CMC) 96 % of control | dose: 200.0 mg/kg/injection, schedule: Q04DX003 (ip), vehicle: carboxymethylcellulose (CMC) 99 % of control | dose: 400.0 mg/kg/injection, schedule: Q01DX001 (ip), vehicle: carboxymethylcellulose (CMC) 89 % of control | dose: 400.0 mg/kg/injection, schedule: Q04DX003 (ip), vehicle: carboxymethylcellulose (CMC) 97 % of control

S=c1nccc[nH]1
inactive: dose: 25.0 mg/kg/injection, schedule: Q01DX009 (ip), vehicle: saline with Tween-80 103 % of control | dose: 25.0 mg/kg/injection, schedule: Q04DX002 (ip), vehicle: saline with Tween-80 93 % of control | [24] 105 % of control | dose: 50.0 mg/kg/injection, schedule: Q04DX002 (ip), vehicle: saline with Tween-80 107 % of control | dose: 100.0 mg/kg/injection, schedule: Q04DX002 (ip), vehicle: saline with Tween-80 96 % of control

CN(CCC#N)C1=CCCC1
inactive: dose: 100.0 mg/kg/injection, schedule: Q04DX003 (ip), vehicle: saline sonified 100 % of control | dose: 200.0 mg/kg/injection, schedule: Q04DX003 (ip), vehicle: saline sonified 111 % of control | dose: 400.0 mg/kg/injection, schedule: Q04DX003 (ip), vehicle: saline sonified 96 % of control

Clc1ccccc1-c1nc2ccccc2cc1Br
inactive: [19] 97 % of control | [22] 96 % of control | [23] 92 % of control

Cc1ccc(OCC(=O)Nc2ccc(Cl)cc2)c(C)c1
inactive: dose: 100.0 mg/kg/injection, schedule: Q01DX001 (ip), vehicle: other 95 % of control | dose: 200.0 mg/kg/injection, schedule: Q01DX001 (ip), vehicle: other 98 % of control | dose: 400.0 mg/kg/injection, schedule: Q01DX001 (ip), vehicle: other 98 % of control

C=C=CC(C=O)(CC)CCCC (stereo unspecified)
inactive: [24] 91 % of control | [20] 94 % of control | [21] 98 % of control
